Measured values: ChEMBL document CHEMBL1129033, “Synthesis and antibacterial activity of U-100592 and U-100766, two oxazolidinone antibacterial agents for the potential treatment of multidrug-resistant gram-positive bacterial infections” (1996)
In brackets after ≈: the same amount, converted by molar mass.

Legend:
[1] = tested on: Mycobacterium tuberculosis; assay: In vitro antibacterial activity against Mycobacterium tuberculosis strain H37Rv; type: functional
Bacteroides fragilis = assay: In vitro antibacterial activity against Bacteroides fragilis strain ATCC 25285; type: functional
Staphylococcus aureus [2] = assay: In vitro antibacterial activity against Staphylococcus aures strain ATCC 29213; type: functional
Staphylococcus aureus [3] = assay: In vitro antibacterial activity against Staphylococcus aures strain UC 9213; type: functional
Mus musculus [4] = assay: In vivo antibacterial activity against Staphylococcus aures strain UC 9213 administered perorally in mice; type: functional; details: po
Clostridium perfringens = assay: In vitro antibacterial activity against Clostridium perfringens strain ATCC 13124; type: functional
Mus musculus [5] = assay: (§1) In vivo antibacterial activity against Staphylococcus aures strain UC 9213 administered subcutaneously in mice; type: functional; details: sc
Mus musculus [6] = assay: In vivo antibacterial activity against Enterococcus faecium strain UC 15090 administered perorally in mice; type: functional; details: po
Escherichia coli = assay: In vitro antibacterial activity against Escherichia coli strain ATCC 25922; type: functional
Klebsiella pneumoniae = assay: In vitro antibacterial activity against Klebsiella pneumoniae strain UC 12081; type: functional
Streptococcus pneumoniae = assay: In vitro antibacterial activity against Streptococcus pneumoniae strain UC 9912; type: functional
Streptococcus pyogenes = assay: In vitro antibacterial activity against Streptococcus pyogenes strain UC 152; type: functional
[7] = tested on: Staphylococcus epidermidis; assay: In vitro antibacterial activity against Staphylococcus epidermis strain UC 30031; type: functional
Mus musculus [8] = assay: In vivo antibacterial activity against Enterococcus faecalis strain UC 12379 administered perorally in mice; type: functional; details: po
Enterococcus faecalis = assay: In vitro antibacterial activity against Enterococcus faecalis strain ATCC 29212; type: functional
Staphylococcus aureus [9] = assay: In vitro antibacterial activity against Staphylococcus aures strain UC12673; type: functional
Enterococcus faecium = assay: In vitro antibacterial activity against Enterococcus faecium strain UC12712; type: functional
Pseudomonas aeruginosa = assay: In vitro antibacterial activity against Pseudomonas aeruginosa strain ATCC 27853; type: functional
Mus musculus [10] = assay: In vivo antibacterial activity against Enterococcus faecalis strain UC 12379 administered subcutaneously in mice; type: functional; details: sc
Mus musculus [11] = assay: as §1; type: functional; details: sc; remark: listed apart in the source
Mus musculus [12] = assay: In vivo antibacterial activity against Enterococcus faecium strain UC 15090 administered subcutaneously in mice; type: functional; details: sc
[13] = tested on: Mycobacterium tuberculosis; assay: In vitro antibacterial activity against Mycobacterium tuberculosis strain H37Rv; f means comparative control value for isoniazid was 0.20 ug/mL.; type: functional, organism-based

SMILES | MIC [1] [µg/mL] | MIC (Bacteroides fragilis) [µg/mL] | ED50 (Mus musculus [4]) [mg/kg] | MIC (Clostridium perfringens) [µg/mL] | ED50 (Mus musculus [5]) [mg/kg] | ED50 (Mus musculus [6]) [mg/kg] | MIC (Escherichia coli) [µg/mL] | MIC (Klebsiella pneumoniae) [µg/mL] | MIC (Streptococcus pneumoniae) [µg/mL] | MIC (Streptococcus pyogenes) [µg/mL] | MIC [7] [µg/mL] | ED50 (Mus musculus [8]) [mg/kg] | MIC (Enterococcus faecium) [µg/mL] | MIC (Pseudomonas aeruginosa) [µg/mL] | other results
CC(=O)NC[C@H]1CN(c2ccc(N3CCN(C(=O)CO)CC3)c(F)c2)C(=O)O1 [EPEREZOLID] | < 0.125 | 1 (≈ 2.54 µM) | 1.9 | 1 (≈ 2.54 µM) | 0.9 | 12.5 | > 64 | > 64 | 0.5 (≈ 1.27 µM) | 1 (≈ 2.54 µM) | 1 (≈ 2.54 µM) | 1.3 | 1 (≈ 2.54 µM) | > 64 | MIC (Staphylococcus aureus [2]): 4 µg/mL (≈ 10.1 µM); MIC (Staphylococcus aureus [3]): 4 µg/mL (≈ 10.1 µM); MIC (Enterococcus faecalis): 2 µg/mL (≈ 5.07 µM); MIC (Staphylococcus aureus [9]): 2 µg/mL (≈ 5.07 µM)
CC(=O)NC[C@H]1CN(c2ccc(N3CCOCC3)c(F)c2)C(=O)O1 [LINEZOLID] | < 0.125 | 1 (≈ 2.96 µM) | 5.6 | 1 (≈ 2.96 µM) | 2 | 24 | > 64 | > 64 | – | 2 (≈ 5.93 µM) | 1 (≈ 2.96 µM) | 10 | 2 (≈ 5.93 µM) | > 64 | –
CN[C@H](CC(C)C)C(=O)N[C@H]1C(=O)N[C@@H](CC(N)=O)C(=O)N[C@H]2C(=O)N[C@H]3C(=O)N[C@H](C(=O)N[C@H](C(=O)O)c4cc(O)cc(O)c4-c4cc3ccc4O)[C@H](O)c3ccc(c(Cl)c3)Oc3cc2cc(c3O[C@@H]2O[C@H](CO)[C@@H](O)[C@H](O)[C@H]2O[C@H]2C[C@](C)(N)[C@H](O)[C@H](C)O2)Oc2ccc(cc2Cl)[C@H]1O [VANCOMYCIN] | – | > 16 | – | 1 (≈ 0.69 µM) | 3.9 | – | > 64 | > 64 | 0.5 (≈ 0.345 µM) | – | – | – | – | > 64 | ED50 (Mus musculus [10]): < 0.6 mg/kg; ED50 (Mus musculus [11]): 3.9 mg/kg; ED50 (Mus musculus [12]): > 100 mg/kg; MIC [13]: Comparitive control valie for isonazid was 0.20 ug/ml
